Test system: new influenza virus (A/California/04/2009(H1N1))
Type: in vivo
Conditions: H1N1-infected BALB/c mice (6 per group), observed 14 days after infection; ginseng concentrates 10 mg/kg/day for 14 days before and one week after inoculation; Tamiflu 2 mg/kg/day

CCOC(=O)C1=C[C@@H](OC(CC)CC)[C@H](NC(C)=O)[C@@H](N)C1 [Tamiflu]
Fatality: 0%

Reference: patent US12485154B2 (priority 2019, dated 2025)
